Results as given in publication PMC6897945, “CytA, a reductase in the cytorhodin biosynthesis pathway, inactivates anthracycline drugs in Streptomyces” (Communications Biology, 2019).
Converted amounts (≈) assume the structure as drawn. Like-named read-outs stand apart in the source and are kept apart here.

Columns and labels:
MDA-MB-468 cells = details: cited from earlier work
B. subtilis BS01 = assay: Antibacterial activity, broth dilution MIC; assay type: cell-based; details: Bacillus subtilis
Description: (§1) The antibacterial activities of compounds 1–13 were assessed using twofold serial dilutions of antibacterial agents in MH broth, according to previously reported standard methods provided by Clinical and Laboratory Standards Institute (CLSI)[30]. These compounds were tested for their antibacterial activities against Bacillus subtilis BS01, Staphyloccocus aureus ATCC 29213, Staphyloccocus aureus 745524, Bacillus thuringiensis BT01, and Enterococcus faecalis ATCC 29212 using a broth dilution method.

B. thuringiensis BT01 = assay: Antibacterial activity, broth dilution MIC; assay type: cell-based; details: Bacillus thuringiensis
Description: as §1

[1] = test system: Staphylococcus aureus ATCC 29213; assay: Antibacterial activity, broth dilution MIC; assay type: cell-based
Description: as §1

[2] = test system: Staphylococcus aureus 745524; assay: Antibacterial activity, broth dilution MIC; assay type: cell-based
Description: as §1

E. faecalis ATCC 29212 = assay: Antibacterial activity, broth dilution MIC; assay type: cell-based; details: Enterococcus faecalis
Description: as §1

[3] = test system: A549 human lung cancer cell line; assay: Cytotoxic activity, MTT method; assay type: cell-based; details: A549, read-out: Cytotoxic activities IC50, A549
Source text: (§2) All data were obtained in triplicate and are presented as means.

[4] = test system: RKO human colorectal carcinoma cell line; assay: Cytotoxic activity, MTT method; assay type: cell-based; details: read-out: Cytotoxic activities IC50, RKO
Source text: as §2

[5] = Cytotoxic activity, MTT method; assay type: cell-based; details: human
Source text: as §2

[6] = test system: MCF-7 human breast adenocarcinoma cell line; assay: Cytotoxic activity, MTT method; assay type: cell-based; details: MCF7, read-out: Cytotoxic activities IC50, MCF-7
Source text: as §2

[7] = test system: HepG2 human hepatocellular carcinoma cell line; assay: Cytotoxic activity, MTT method; assay type: cell-based; details: HepG2, read-out: Cytotoxic activities IC50, HepG2
Source text: as §2

[8] = test system: MDA-MB-468 human triple negative breast adenocarcinoma cell line; assay: Cytotoxic activity, MTT method; assay type: cell-based; details: MDA-MB-468, read-out: Cytotoxic activities IC50, MDA-MB-468
Source text: as §2

[9] = test system: HeLa human cervical carcinoma cell line; assay: Cytotoxic activity, MTT method; assay type: cell-based; details: read-out: Cytotoxic activities IC50, HeLa
Source text: as §2

[10] = test system: MDA-MB-231 human triple negative breast adenocarcinoma cell line; assay: Cytotoxic activity, MTT method; assay type: cell-based; details: MDA-MB-231, read-out: Cytotoxic activities IC50, MDA-MB-231
Source text: as §2

CytA = assay: Enzyme kinetics of CytA (formation of deglycosylation products, anaerobic); assay type: biochemical, Streptomyces sp. SCSIO 1666; details: substrate of CytA; 0.5 μM CytA, 20 μM NADH, anaerobic
Description: Enzymatic reactions were carried out under anaerobic conditions in an anaerobic workstation (Don Whitley Scientific A45) containing a gas phase of N2/H2/CO2 (80:10: 10%, by vol.). ^1H, ^13C, and 2D (COSY, HMQC, HMBC and NOESY) NMR spectra were recorded at 25 °C with an Avance 700 MHz spectrometer instruments (Bruker). High-resolution mass spectra were obtained with a Maxis quadrupole-time-of-flight mass spectrometer (Bruker).
To validate the in vitro biochemical activities of CytA, we overexpressed and purified this enzyme as a soluble N-terminally His6-tagged protein from E. coli (Fig. 2a). Tris-Cl buffer was made O2 free by boiling, followed by cooling under N2 flow; NADH stock solution (dissolved in Tris-Cl), substrate stock solution (dissolved in DMSO), and enzyme solution (dissolved in Tris-Cl supplemented with 10% glycerin) were subjected to O2 eliminating process in the anaerobic workstations for at least two cycles (40 min for one cycle). CytA enzymatic activity was tested in 50 μL volume containing 50 mM Tris-Cl (pH 8.0), 25 μM substrate, 0.5 μM CytA, and 20 μM NADH, at 37 °C for 30 min. The reaction was quenched with the addition to 2 volumes MeOH. After centrifugation to remove protein, supernatants were analyzed with Agilent HPLC equipment using a Phenomenex Prodigy ODS column S5 (150 × 4.60 mm, 5 μ) and UV detection at 254 and 500 nm. Samples were eluted with a gradient elution of phase A containing 0.1% TFA in ddH2O and phase B containing 100% acetonitrile, at a flow rate of 1 mL/min.
Kinetic analyses of CytA with putative substrates 6–10, daunorubicin, doxorubicin, idarubicin, epirubicin and pirarubicin, involved a reaction volume of 20 μL consisting of 50 mM Tris-Cl (pH 8.0), 0.5 μM CytA, 20 μM NADH, […]
All assays were performed in triplicate and Km and Vmax values were calculated on the basis of curve fitting to the Michaelis-Menten equation: v = Vmax *[S]/(Km + [S]) (Supplementary Fig. 7).
For kinetics of CytA, Origin 9.0 (OriginLab Co.) was used to analyze on the basis of curve fitting to the Michaelis-Menten equation. Experiments were performed in triplicate independently. For antibacterial activity, experiments were performed in triplicate using 96-well plates.

[11] = test system: five gram-positive bacteria; assay: Antibacterial activities, set of five gram-positive bacteria; assay type: cell-based; details: set of five gram-positive bacteria (Table 2)
Description: as §1

[12] = test system: Streptomyces sp. SCSIO 1666 WT; assay: Growth inhibition zone assay; assay type: cell-based; details: WT strain, Fig. 3
Source text: (§3) We also noted that the ∆cytA mutant strain accumulated small amounts (80~100-fold lower than WT producer) of the immediate biosynthetic precursors of cosmomycins A (3) and B (4). The in vitro antimicrobial activities of compounds 1–13 against a panel of gram-positive bacteria (Table 2) provided some insight into the possible physiological significance of CytA-catalyzed reductions. Furthermore, we had observed that the ΔcytA mutant strain is clearly impaired relative to the WT strain upon addition of 6 or 7 as potential substrates. To evaluate this effect, we probed the sensitivity of Streptomyces sp. SCSIO 1666 to 6 and 7 in an inhibition zone assay (Fig. 3). A clear inhibition zone (16 mm) using the ΔcytA mutant plate was observed when supplemented with 1 μg of 6 or 7. […] That CytA production endows cosmomycin resistance provides strong evidence that the cytA gene directly confers Streptomyces. sp. SCSIO 1666 with the ability to protect itself from the effects by self-resistance to cosmomycins C and D.
(§4) Fig. 3 Sensitivity of Streptomyces sp. SCSIO 1666 toward cosmomycin C (6) and cosmomycin D (7) (1 μg) as determined by growth inhibition zone assays. […] TEXT PRINTED IN THE PICTURE: 6: ΔcytA mutant strain: 16 mm DOUBTS OF THE COPYIST ABOUT THIS PICTURE: 6, ΔcytA mutant strain: the small yellow print reads 16 mm, but it could be 15 or 18 mm / 6: the yellow double arrow marked 16 mm spans the zone around disc 6. The picture prints no measure name, so it may be the inhibition zone diameter or only a scale mark

[13] = test system: Streptomyces sp. SCSIO 1666 ΔcytA mutant strain; assay: Growth inhibition zone assay; assay type: cell-based; details: ∆cytA mutant strain, Fig. 3
Source text: as §3, §4

[14] = B. subtilis BS01, triplicate, read-out: MIC values, BS
[15] = B. thuringiensis BT01, triplicate, read-out: MIC values, BT
[16] = ATCC29213, Staphylococcus aureus ATCC 29213, triplicate, read-out: MIC values, SA1
[17] = Staphylococcus aureus 745524, triplicate, read-out: MIC values, SA2
[18] = ATCC29212, E. faecalis ATCC 29212, triplicate, read-out: MIC values, EF
[19] = Huvec-12 normal cell line, read-out: Cytotoxic activities IC50, Huvec-12
[20] = L02 normal cell line, read-out: Cytotoxic activities IC50, L02

| SMILES | MIC (B. subtilis BS01; [14]) [µg/mL] | MIC (B. thuringiensis BT01; [15]) [µg/mL] | MIC [1, 16] [µg/mL] | MIC [2, 17] [µg/mL] | MIC (E. faecalis ATCC 29212; [18]) [µg/mL] | IC50 [3] [µM] | IC50 [4] [µM] | IC50 [5, 19] [µM] | IC50 [5, 20] [µM] | IC50 [6] [µM] | IC50 [7] [µM] | IC50 [8] [µM] | IC50 [9] [µM] | IC50 [10] [µM] | MIC (B. thuringiensis BT01; BT01, read-out: MIC values, BT) [µg/mL] | Km (CytA) [µM] | kcat (CytA) [s⁻¹] | MIC [11] [µg/mL] | further results |
| --- | --- | --- | --- | --- | --- | --- | --- | --- | --- | --- | --- | --- | --- | --- | --- | --- | --- | --- | --- |
| CC[C@@]1(O)CCc2c(O)c3c(c(O)c2[C@H]1O[C@H]1C[C@H](N(C)C)[C@H](O[C@H]2C[C@H](O)[C@H](O[C@H]4CC[C@H](O)[C@H](C)O4)[C@H](C)O2)[C@H](C)O1)C(=O)c1cccc(O)c1C3=O [Compound 4, cosmomycin B] | 0.25 (≈ 0.324 µM) | 0.25 (≈ 0.324 µM) | 0.25 (≈ 0.324 µM) | 0.125 (≈ 0.162 µM) | 0.03 (≈ 0.0389 µM) | 0.021 | 0.089 | 0.41 | 0.32 | 0.65 | 0.038 | 0.71 | 0.017 | 0.85 | – | – | – | – | cytotoxic activity against MDA-MB-468 cells (MDA-MB-468 cells): devoid of activity |
| CC[C@@]1(O)C[C@H](O[C@H]2C[C@H](N(C)C)[C@H](O)[C@H](C)O2)c2c(O)c3c(c(O)c2[C@H]1C(=O)OC)C(=O)c1cccc(O)c1C3=O [Compound 9, ε-rhodomycin] | – | – | – | – | – | 1.92 | 2.88 | 7.21 | 14 | 11.7 | 1.91 | 13.5 | 1.01 | 6.63 | 4 (≈ 6.83 µM) | 8.5 | 0.0055 | – | MIC (B. subtilis BS01; BS01, read-out: MIC values, BS): 8 µg/mL (≈ 13.7 µM); MIC ([1]; Staphylococcus aureus, ATCC29213, read-out: MIC values, SA1): 4 µg/mL (≈ 6.83 µM); MIC ([2]; Staphylococcus aureus, 745524, read-out: MIC values, SA2): 4 µg/mL (≈ 6.83 µM); MIC (E. faecalis ATCC 29212; ATCC29212, read-out: MIC values, EF): 8 µg/mL (≈ 13.7 µM) |
| CC[C@@]1(O)CCc2c(O)c3c(c(O)c2[C@H]1C(=O)OC)C(=O)c1cccc(O)c1C3=O [Compound 11] | > 32 | > 32 | > 32 | > 32 | > 32 | – | – | – | – | – | – | – | – | – | – | – | – | > 32 | – |
| CC[C@@]1(O)C[C@H](O)c2c(O)c3c(c(O)c2[C@H]1C(=O)OC)C(=O)c1cccc(O)c1C3=O [Compound 10, ε-rhodomycinone] | > 32 | – | > 32 | > 32 | > 32 | 33.2 | 18.5 | 15.3 | 11.8 | 37.3 | 17.2 | 7.43 | 20.2 | > 50 | > 32 | 31.2 | 0.00233 | > 32 | activity in growth inhibition zone assay [12]: inactive; activity in growth inhibition zone assay [13]: inactive |
